Assay results taken from patent publication US4151283A, “6-Methyl-and 1,6-dimethyl-8β-carbobenzyloxy-aminomethyl-10α-ergoline as inhibitors of prolactin secretion” (Societa' Farmaceutici Italia S.p.A., priority 1977, dated 1979).

Assays:
[1] = test system: lactation; experiment: Lactation inhibition in rats (anti-lactation activity); type: in vivo; conditions: Rattus norvegicus, po, methane-sulfonic salt, 6th and 7th days, approximate (.congruent.); read-out: ED50, lactation inhibition (50% reduction of gain in weight of the litters)
Description: Adult pregnant female rats were individually caged about 6 days before parturition. The day after parturition (day 1), the number of pups was adjusted to eight. The gain in weight of the litters was measured daily.
The test compounds as methane-sulfonic salts were administered orally to groups of eight mother rats on the 6th and 7th days immediately after the weighing of the litters. The control mothers were treated with the vehicle alone.
The percentage of lactation inhibition was calculated from the mean gain in weight of the litters on the 7th and 8th days in comparison with the results for the 5th and 6th days.
No lactation inhibition was present on the 7th and 8th days in the vehicle-treated (control) group.
The doses capable of reducing to 50% the gain in weight of the litters (ED50) are reported below in Table II.

[2] = test system: nidation (implantation sites); experiment: Nidation inhibition in rats (anti-nidation activity); type: in vivo, rat (Sprague-Dowley strain); conditions: Rattus norvegicus, methane-sulphonic salt, given on 3rd day, approximate (.congruent.)
Description: Adult female rats, of the Sprague-Dowley strain, in proestrus were mated with fertile males and their vaginal smears were examined the next morning.
The presence of spermatozoa was considered evidence of impregnation and onset of pregnancy (day 1).
The compounds were administered orally or intraperitoneally as methane-sulphonic salts to groups of six to eight rats on the 3rd day.
On the 14th day the animals were sacrificed and the uterus was examined for the presence of implantation sites.
The absence of implantation sites was the criterion of activity.
Several doses were tested for the ED50 evaluation.

[3] = Emetic activity in dogs; type: in vivo, dog (male beagle); conditions: dog, in vivo, methane-sulphonic salt, approximate (.congruent.), read-out: ED50, emetic activity; for TD50 at 2 h: iv, observed 2 hours; for TD50 at 6 h: po, observed 6 hours
Description: (§1) The emetic activity of the compounds was examined by intravenous and oral administration to male beagle dogs weighing 15-20 kg. The compounds were administered as the methane-sulphonic salts. […] Five to six animals per dose were employed for the ED50 evaluation.

[4] = test system: emesis; experiment: Emetic activity in dogs; type: in vivo, dog (male beagle); conditions: dogs, both routes of administration (Table III), in words
Description: as §1

[5] = test system: prolactin (PRL) release; conditions: cited from earlier work
[6] = test system: prolactin; conditions: literature (Brooks and Welsch 1974), in words; cited from earlier work
[7] = test system: lactation; conditions: in rats, literature (Fluckiger and Wagner 1968), in words; cited from earlier work
[8] = test system: nidation (implantation sites); conditions: in rats, literature (Fluckiger and Wagner 1968), in words; cited from earlier work
[9] = test system: puerperal lactation; conditions: comparison drug, no own test described; cited from earlier work
[10] = test system: puerperal lactation; experiment: Inhibition of puerperal lactation in women (clinical evaluation); type: in vivo, human (puerperal women)
Description: The invention concerns a novel method of inhibiting lactation in puerperal women by administering metergoline.
Metergoline was administered at a dose of 8 mg/day (4 mg at 0.800 and 4 mg at 2000) to these women: 10 women were treated with a placebo.

[11] = test system: prolactin (PRL) release; conditions: cited from earlier work; remark: listed apart in the source

CN1C[C@H](CNC(=O)OCc2ccccc2)C[C@@H]2c3cccc4[nH]cc(c34)C[C@H]21 [1-Demethyl-metergoline, 6-Methyl-8β-carbobenzyloxy-aminomethyl-10α-ergoline]
ED50 [1]: 4 to 8 mg/kg
ED50 ([2]; po): 4 to 8 mg/kg
TD50 at 2 h [3]: 0.05 to 0.1 mg/kg
TD50 at 6 h [3]: 0.2 to 0.4 mg/kg
emetic tolerability versus reference standard III [4]: clearly better tolerated than the reference standard III

N[C@@H](Cc1c[nH]c2ccc(O)cc12)C(=O)O [5 hydroxytryptophan]
effect on PRL release in man [5]: stimulates PRL release

CC(C)C[C@H]1C(=O)N2CCC[C@H]2[C@]2(O)O[C@](NC(=O)[C@@H]3C=C4c5cccc6[nH]c(Br)c(c56)C[C@H]4N(C)C3)(C(C)C)C(=O)N12 [Bromocriptine, 2-Br-α-ergocriptine, reference compound]
anti-prolactin activity [6]: anti-prolactin activity
anti-lactation activity [7]: well known both for its anti-nidation and anti-lactation activity in rats
anti-nidation activity [8]: well known both for its anti-nidation and anti-lactation activity in rats
ED50 [1]: 8 to 16 mg/kg
ED50 ([2]; ip): 16 to 32 mg/kg
ED50 ([2]; po): 8 to 16 mg/kg
treatment period required [9]: 14 days
TD50 at 2 h [3]: ~0.007 mg/kg
TD50 at 6 h [3]: < 0.03 mg/kg

CN1C[C@H](CNC(=O)OCc2ccccc2)C[C@@H]2c3cccc4c3c(cn4C)C[C@H]21 [Metergoline, 1,6-Dimethyl-8β-carbobenzyloxy-aminomethyl-10α-ergoline]
women in whom five days of treatment prevented or suppressed lactation ([10]; 8 mg/day (4 mg twice), 5 days): 69 women
remaining women in whom a second course definitely inhibited every sign of mammary activity ([10]; 8 mg/day, second course of 5 additional days): 9 women
cases in which the necessary treatment period is 5 days ([10]; 5 days of treatment): 88.5%
treatment period necessary ([10]; in 88.5% of cases): 5 days
tolerability / side-effects ([10]; women, 8 mg/day, in words): perfectly tolerated and devoid of any side-effect
ED50 [1]: 12.5 to 25 mg/kg
ED50 ([2]; ip): 16 to 32 mg/kg
ED50 ([2]; po): ~25 mg/kg
TD50 at 2 h [3]: > 8 mg/kg
TD50 at 6 h [3]: 4 to 8 mg/kg
emetic tolerability versus reference standard III [4]: clearly better tolerated than the reference standard III

CC[C@@H](CO)NC(=O)[C@@H]1C=C2c3cccc4c3c(cn4C)C[C@H]2N(C)C1 [methysergide]
effect on 5-hydroxytryptophan-stimulated PRL release ([5]; in man): partially inhibited

NCCc1c[nH]c2ccc(O)cc12 [serotonin (5HT), 5-hydroxytryptamine]
effect on PRL release in animals [11]: stimulates prolactin (PRL) release
